The values that follow come from PMC5733478, “A Non-imaging High Throughput Approach to Chemical Library Screening at the Unmodified Adenosine-A3 Receptor in Living Cells” (Frontiers in Pharmacology, 2017).

Molecules are shown by their SMILES. Where a name gives a salt, the structure may show the parent alone.

In one assay the target is T1, human A3AR (Homo sapiens, UniProt P0DMS8).
T1 construct: expressed in transfected cells
T1 sequence (P0DMS8 1-318): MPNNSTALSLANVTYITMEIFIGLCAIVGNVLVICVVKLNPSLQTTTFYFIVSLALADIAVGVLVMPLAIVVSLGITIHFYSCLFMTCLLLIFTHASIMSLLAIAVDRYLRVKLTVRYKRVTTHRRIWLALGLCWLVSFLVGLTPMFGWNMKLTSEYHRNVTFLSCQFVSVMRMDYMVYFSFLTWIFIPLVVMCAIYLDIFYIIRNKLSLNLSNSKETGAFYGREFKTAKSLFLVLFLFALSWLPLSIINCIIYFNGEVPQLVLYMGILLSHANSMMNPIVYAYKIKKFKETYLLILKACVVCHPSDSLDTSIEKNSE
Description: LOPAC library primary screen: single concentration (10 μM) inhibition of 25 nM CA200645 binding, PHERAstar FS.
Conditions: not given
`O=C(O)c1ccccc1Nc1ccccc1` [N-Phenylanthranilic acid]: the “% 25 nM CA200645 binding” value came out at 95.2 ± 6.4%.
Regarding `O=C(O)CCC(=O)N1CCC[C@H]1C(=O)O` [N-Succinyl-L-proline], the “% 25 nM CA200645 binding” value amounted to 81.8 ± 11.2%.
The same measure, in the same setting: the same measure for `NC(=O)C1=CN([C@@H]2O[C@H](COP(=O)([O-])OP(=O)([O-])OC[C@H]3O[C@@H](n4cnc5c(N)ncnc54)[C@H](OP(=O)([O-])[O-])[C@@H]3O)[C@@H](O)[C@H]2O)C=CC1.[Na+].[Na+].[Na+].[Na+]` [NADPH tetrasodium]: 112.0 ± 13.1%.
For `Br.COc1ccccc1N1CCN(CCCCN2C(=O)c3ccccc3C2=O)CC1` [NAN-190 hydrobromide], the “% 25 nM CA200645 binding” value came out at 91.1 ± 29.0%.
For `CCCN(CC1CC1)c1nc(C)nc(Nc2c(Cl)cc(Cl)cc2Cl)c1Cl` [NBI 27914], the “% 25 nM CA200645 binding” value is recorded as 89.7 ± 7.0%.
Turning to `NS(=O)(=O)c1cccc2c1c([N+](=O)[O-])cc1nc([O-])c([O-])nc12.[Na+].[Na+]` [NBQX disodium], the “% 25 nM CA200645 binding” value is reported as 94.5 ± 3.8%.
The same measure, in the same setting: the same measure for `O=C(Nc1cccc(C(=O)Nc2ccc(S(=O)(=O)O)c3cc(S(=O)(=O)O)cc(S(=O)(=O)O)c23)c1)Nc1cccc(C(=O)Nc2ccc(S(=O)(=O)O)c3cc(S(=O)(=O)O)cc(S(=O)(=O)O)c23)c1` [NF 023]: 83.8 ± 25.8%; for `CC(C)[C@H]1c2ccc(F)cc2CC[C@@]1(CCN(C)CCCc1nc2ccccc2[nH]1)OC(=O)C1CC1` [NNC 55-0396]: 109.8 ± 31.5%; for `Cl.c1ccc2c(c1)CCC[C@H]2Nc1nc2ccccc2[nH]1` [NS8593 hydrochloride]: 91.2 ± 11.5%.
Consider `O=c1onc2n1-c1cc(Br)ccc1OC2` [NS 2028], for which the “% 25 nM CA200645 binding” value is 100.2 ± 8.6%.
Consider `O=c1[nH]c2cc(C(F)(F)F)ccc2n1-c1cc(C(F)(F)F)ccc1O` [NS-1619], for which the “% 25 nM CA200645 binding” value came out at 94.9 ± 11.8%.
Regarding `O=C1C(SCCO)=C(SCCO)C(=O)c2ccccc21` [NSC 95397], the “% 25 nM CA200645 binding” value is 96.3 ± 15.0%.
For `Nc1nc(OCC2CCCCC2)c2[nH]cnc2n1` [NU2058], the “% 25 nM CA200645 binding” value came to 53.9 ± 7.1%.
`Nc1nc(N)c(N=O)c(OCC2CCCCC2)n1` [NU6027]: the “% 25 nM CA200645 binding” value is on record as 80.6 ± 9.9%.
For `CN(C)C(N)=NCCC[C@H](N)C(=O)O.Cl` [N^G,N^G-Dimethylarginine hydrochloride], the “% 25 nM CA200645 binding” value was found to be 101.2 ± 10.7%.
Turning to `COc1ccccc1N1CCN(CC(O)COc2cccc3ccccc23)CC1.Cl.Cl` (centres unmarked) [Naftopidil dihydrochloride], the “% 25 nM CA200645 binding” value was 98.6 ± 14.2%.
Still for that read-out and setting: the same measure for `CCn1cc(C(=O)[O-])c(=O)c2ccc(C)nc21.[Na+]` [Nalidixic acid sodium]: 106.1 ± 13.7%; for `C=CCN1CC[C@]23c4c5ccc(O)c4O[C@H]2C(=O)CC[C@@]3(O)[C@H]1C5` [Naloxone hydrochloride]: 114.3 ± 14.2%; for `Oc1ccc2c3c1O[C@H]1c4oc5ccccc5c4C[C@@]4(O)[C@@H](C2)N(CC2CC2)CC[C@]314` [Naltriben methanesulfonate]: 106.9 ± 8.0%.
For the compound `Oc1ccc2c3c1O[C@H]1c4[nH]c5ccccc5c4C[C@@]4(O)[C@@H](C2)N(CC2CC2)CC[C@]314` [Naltrindole hydrochloride], the “% 25 nM CA200645 binding” value was 111.0 ± 9.1%.
On the same count and under the same terms, with `c1ccc2c(CC3=NCCN3)cccc2c1` [Naphazoline hydrochloride] the figure was 105.3 ± 13.5%; with `Cc1cccc(C)c1NC(=O)CN1CCCC1=O` [Nefiracetam], 88.8 ± 23.8%.
On the same count and under the same terms, the same measure for `CS(=O)(=O)O.Cc1c(O)cccc1C(=O)N[C@@H](CSc1ccccc1)[C@H](O)CN1C[C@H]2CCCC[C@H]2C[C@H]1C(=O)NC(C)(C)C.O` [Nelfinavir mesylate hydrate]: 77.3 ± 17.3%.
With `CN(C)C(=O)Oc1cccc([N+](C)(C)C)c1` [Neostigmine bromide], the “% 25 nM CA200645 binding” value was found to be 100.2 ± 23.4%.
Still for that read-out and setting: with `O=C(CCNNC(=O)c1ccncc1)NCc1ccccc1` [Nialamide] the figure was 96.8 ± 7.4%; with `O=C(Nc1ccc([N+](=O)[O-])cc1Cl)c1cc(Cl)ccc1O` [Niclosamide], 101.6 ± 22.5%.
Consider `O=C(O)c1cccnc1Nc1cccc(C(F)(F)F)c1` [Niflumic acid], for which the “% 25 nM CA200645 binding” value is given as 113.3 ± 19.3%.
Consider `CC1(C)NC(=O)N(c2ccc([N+](=O)[O-])c(C(F)(F)F)c2)C1=O` [Nilutamide], for which the “% 25 nM CA200645 binding” value was 98.7 ± 10.0%.
For the compound `CS(=O)(=O)Nc1ccc([N+](=O)[O-])cc1Oc1ccccc1` [Nimesulide], the “% 25 nM CA200645 binding” value stood at 114.0 ± 22.1%.
Still for that read-out and setting: the same measure for `Cc1ncc(CNC(=O)N(CCCl)N=O)c(N)n1` [Nimustine hydrochloride]: 95.2 ± 13.6%.
Turning to `CNCCC(Oc1ccccc1OC)c1ccccc1` (centres unmarked) [Nisoxetine hydrochloride], the “% 25 nM CA200645 binding” value is reported as 97.3 ± 6.5%.
The same measure, in the same setting: with `CCOC(=O)C1=C(C)NC(C)=C(C(=O)OC)C1c1cccc([N+](=O)[O-])c1` (centres unmarked) [Nitrendipine] the figure was 96.1 ± 17.4%.
With `COC(=O)Nc1nc2ccc(C(=O)c3cccs3)cc2[nH]1` [Nocodazole], the “% 25 nM CA200645 binding” value is given as 79.0 ± 5.7%.
With `CN1Cc2c(N)cccc2C(c2ccccc2)C1` (centres unmarked) [Nomifensine maleate], the “% 25 nM CA200645 binding” value is 98.5 ± 14.7%.
Take `O=C1OC(=O)[C@H]2[C@@H]1[C@@H]1CC[C@H]2O1` [Norcantharidin]: the “% 25 nM CA200645 binding” value is recorded as 108.5 ± 19.2%.
Regarding `CNCCC=C1c2ccccc2CCc2ccccc21` [Nortriptyline hydrochloride], the “% 25 nM CA200645 binding” value is reported as 106.1 ± 17.3%.
Same read-out and setting: the same measure for `COc1ccc2c(c1OC)C(=O)O[C@@H]2[C@H]1c2c(cc3c(c2OC)OCO3)CCN1C.Cl` [Noscapine hydrchloride]: 114.6 ± 20.4%; for `Nc1nc(OCc2ccccc2)c2nc[nH]c2n1` [O6-benzylguanine]: 65.0 ± 6.0%.
Regarding `COc1ccc2[nH]cc(CCN)c2c1.Cl` [O-Methylserotonin hydrochloride], the “% 25 nM CA200645 binding” value was 107.2 ± 4.7%.
Same read-out and setting: the same measure for `N[C@@H](COP(=O)(O)O)C(=O)O` [O-Phospho-L-serine]: 93.4 ± 14.4%; for `O=c1onc2cnc3ccccc3n12` [ODQ]: 93.0 ± 5.7%.
On to `CC1COc2c(N3CCN(C)CC3)c(F)cc3c(=O)c(C(=O)O)cn1c23` (centres unmarked) [Ofloxacin], for which the “% 25 nM CA200645 binding” value stood at 93.4 ± 20.0%.
With `CCCCCCCC/C=C\CCCCCCCC(=O)O` [Oleic Acid], the “% 25 nM CA200645 binding” value stood at 98.9 ± 11.8%.
Regarding `Cn1cnc2c(NCc3ccccc3)nc(NCCO)nc21` [Olomoucine], the “% 25 nM CA200645 binding” value came out at 97.0 ± 10.1%.
On to `Cc1[nH]c(=O)c(C#N)cc1-c1ccc2nccn2c1.Cl` [Olprinone hydrochloride], for which the “% 25 nM CA200645 binding” value amounted to 100.7 ± 4.5%.
On to `CCCCCCCC/C=C\CCCCCCCC(=O)NCc1ccc(O)c(OC)c1` [Olvanil], for which the “% 25 nM CA200645 binding” value is 76.7 ± 2.8%.
For the compound `OCCN1CCN(CCCN2c3ccccc3C=Cc3ccccc32)CC1` [Opipramol dihydrochloride], the “% 25 nM CA200645 binding” value was found to be 100.5 ± 7.4%.
Take `CN(CC[C@@H](Oc1ccc(C(F)(F)F)cc1)c1ccccc1)CC(=O)[O-].[Li+]` [Org 24598 lithium salt]: the “% 25 nM CA200645 binding” value turned out to be 94.3 ± 5.8%.
Still for that read-out and setting: with `C[C@@H]1O[C@@H](O[C@H]2C[C@@H](O)[C@]3(CO)[C@H]4[C@H](O)C[C@]5(C)[C@@H](C6=CC(=O)OC6)CC[C@]5(O)[C@@H]4CC[C@]3(O)C2)[C@H](O)[C@H](O)[C@H]1O` [Ouabain] the figure was 102.0 ± 3.5%; with `O=C(O)CCc1nc(-c2ccccc2)c(-c2ccccc2)o1` [Oxaprozin], 97.6 ± 6.3%.
In the case of `NC(=O)CN1CC(O)CC1=O` (centres unmarked) [Oxiracetam], the “% 25 nM CA200645 binding” value came out at 97.9 ± 12.4%.
For `CCn1cc(C(=O)O)c(=O)c2cc3c(cc21)OCO3` [Oxolinic acid], the “% 25 nM CA200645 binding” value is given as 101.1 ± 12.4%.
For `C[N+](C)(C)CC#CCN1CCCC1=O` [Oxotremorine methiodide], the “% 25 nM CA200645 binding” value was 101.3 ± 18.6%.
Take `O=C(O)/C=C/C(=O)O.O=C(O)/C=C/C(=O)O.O=C(O)/C=C/C(=O)O.O=C1CCCN1CC#CCN1CCCC1.O=C1CCCN1CC#CCN1CCCC1` [Oxotremorine sesquifumarate salt]: the “% 25 nM CA200645 binding” value amounted to 101.9 ± 13.3%.
With `CCN(CC)CC#CCOC(=O)C(O)(c1ccccc1)C1CCCCC1` (centres unmarked) [Oxybutynin Chloride], the “% 25 nM CA200645 binding” value is on record as 101.0 ± 12.8%.
In the case of `C=CCc1cccc(/C=N/NC(=O)CN2CCN(Cc3ccccc3)CC2)c1O` [PAC-1], the “% 25 nM CA200645 binding” value amounted to 105.3 ± 4.5%.
`Nc1ccc(CCN2CCN(c3cccc(C(F)(F)F)c3)CC2)cc1` [PAPP]: the “% 25 nM CA200645 binding” value amounted to 95.6 ± 9.9%.
With `COc1cccc(-c2cc(=O)c3ccccc3o2)c1N` [PD 98,059], the “% 25 nM CA200645 binding” value came out at 80.7 ± 2.6%.
As for `Cc1cccc(C(=O)NCN2CCN(c3ccccc3C#N)CC2)c1.O=C(O)/C=C\C(=O)O` [PD 168,077 maleate], the “% 25 nM CA200645 binding” value amounted to 92.4 ± 5.3%.

Still in this assay, the particulars now being: compounds tested at 10 µM; % of control wells (1% DMSO and 25 nM CA200645); whole live cells expressing the A3AR; mean ± SD, three experiments in duplicate.
Consider `[H]/N=C(/NC)NCCC[C@H](N)C(=O)O` [NG-Monomethyl-L-arginine acetate], for which the “% 25 nM CA200645 binding” value came to 112.2 ± 7.1%.
For the compound `O=C1CC[C@@]2(O)[C@H]3Cc4ccc(O)c5c4[C@@]2(CCN3CC2CC2)[C@H]1O5` [Naltrexone hydrochloride], the “% 25 nM CA200645 binding” value is recorded as 102.6 ± 6.5%.
Turning to `CNS(=O)(=O)CCc1ccc2[nH]cc(C3CCN(C)CC3)c2c1` [Naratriptan hydrochloride], the “% 25 nM CA200645 binding” value came out at 102.9 ± 17.6%.
